According to article PMC6100537, “Exploration of the Fluorescent Properties and the Modulated Activities against Sirtuin Fluorogenic Assays of Chromenone-Derived Natural Products” (Molecules : A Journal of Synthetic Chemistry and Natural …, 2018):
pIC50: −log10 of the molar value.

How the values were obtained:
SIRT2 = target: T1, SIRT2 (Homo sapiens, UniProt Q8IXJ6); assay: AMC-peptide fluorogenic deacetylase assay with recombinant SIRT2; Lineweaver-Burk kinetics; format: biochemical
T1 construct: SIRT2 (whole)
T1 sequence (Q8IXJ6 1-389): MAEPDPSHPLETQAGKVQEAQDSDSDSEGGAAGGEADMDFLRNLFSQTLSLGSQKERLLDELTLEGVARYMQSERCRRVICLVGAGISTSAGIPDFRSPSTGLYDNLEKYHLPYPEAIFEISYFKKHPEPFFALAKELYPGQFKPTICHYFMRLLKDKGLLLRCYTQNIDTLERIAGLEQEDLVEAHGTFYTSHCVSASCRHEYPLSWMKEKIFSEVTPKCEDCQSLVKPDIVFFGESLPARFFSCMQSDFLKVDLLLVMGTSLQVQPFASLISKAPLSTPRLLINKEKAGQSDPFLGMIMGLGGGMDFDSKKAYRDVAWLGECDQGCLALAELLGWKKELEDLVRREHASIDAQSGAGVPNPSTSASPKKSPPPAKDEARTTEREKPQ

SIRT1 = target: T2, SIRT1 (Homo sapiens, UniProt Q96EB6); assay: AMC-peptide fluorogenic deacetylase assay with recombinant SIRT1, activation at […], compound fluorescence background subtracted; format: biochemical
T2 construct: SIRT1 (part)
T2 sequence (Q96EB6 2-747): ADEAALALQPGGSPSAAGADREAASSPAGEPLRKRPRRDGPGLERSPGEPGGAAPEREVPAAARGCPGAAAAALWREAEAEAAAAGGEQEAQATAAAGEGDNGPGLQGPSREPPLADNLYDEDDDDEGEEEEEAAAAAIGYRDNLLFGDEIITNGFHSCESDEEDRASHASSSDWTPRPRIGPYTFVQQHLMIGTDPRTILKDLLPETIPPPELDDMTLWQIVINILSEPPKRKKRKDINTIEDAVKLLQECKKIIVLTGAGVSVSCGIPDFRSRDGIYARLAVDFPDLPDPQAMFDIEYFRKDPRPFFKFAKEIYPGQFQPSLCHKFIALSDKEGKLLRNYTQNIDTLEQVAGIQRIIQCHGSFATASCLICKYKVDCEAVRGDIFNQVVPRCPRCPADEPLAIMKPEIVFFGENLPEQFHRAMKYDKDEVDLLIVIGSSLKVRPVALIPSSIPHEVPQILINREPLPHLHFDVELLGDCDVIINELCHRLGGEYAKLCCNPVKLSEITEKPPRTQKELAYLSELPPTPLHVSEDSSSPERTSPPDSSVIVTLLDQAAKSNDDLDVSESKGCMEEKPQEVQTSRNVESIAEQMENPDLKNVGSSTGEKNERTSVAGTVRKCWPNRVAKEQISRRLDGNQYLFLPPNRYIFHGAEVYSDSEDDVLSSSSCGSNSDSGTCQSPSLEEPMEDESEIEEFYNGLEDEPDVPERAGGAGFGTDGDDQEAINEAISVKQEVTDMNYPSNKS

Row | pIC50 (SIRT2) | Structure (SMILES) | fold induction at 10 µM (SIRT1)
1 | 5.00 | COc1ccc2ccc(=O)oc2c1CC=C(C)C [compound 4, osthole] | –
2 | – | Oc1ccc(/C=C/c2cc(O)cc(O)c2)cc1 [compound 1, resveratrol] | 11.6
